The record followed here is ChEMBL document CHEMBL3132769, “Fragment growing to retain or alter the selectivity of anchored kinase hinge-binding fragments” (Medchemcomm, 2014).

Structures are written as SMILES.

Experiment [1] has as its target T1, Testis-specific serine/threonine-protein kinase 2 (Homo sapiens) (UniProt Q96PF2).
T1 sequence (whole entry): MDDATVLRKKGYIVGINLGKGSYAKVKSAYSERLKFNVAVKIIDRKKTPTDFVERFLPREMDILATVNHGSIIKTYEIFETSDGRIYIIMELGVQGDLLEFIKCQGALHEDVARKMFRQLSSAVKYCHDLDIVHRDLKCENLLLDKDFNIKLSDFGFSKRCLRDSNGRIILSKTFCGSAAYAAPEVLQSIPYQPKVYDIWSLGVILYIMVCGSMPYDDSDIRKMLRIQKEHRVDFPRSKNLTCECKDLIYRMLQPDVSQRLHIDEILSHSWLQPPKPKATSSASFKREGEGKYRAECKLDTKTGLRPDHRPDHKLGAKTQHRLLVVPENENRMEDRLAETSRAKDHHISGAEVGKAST
Description: Inhibition of human full length TSSK2 expressed in baculovirus assessed as substrate phosphorylation using fluorescence-labelled peptides as substrate at 0.2 uM after 90 mins by microfluidic peptide phosphorylation assay.

The target of experiment [2] is Glycogen synthase kinase-3 beta (Homo sapiens) (UniProt P49841). The settings on record: 0.1 uM.
Description: Inhibition of human full length GSK-3 beta expressed in baculovirus assessed as substrate phosphorylation using fluorescence-labelled peptides as substrate at 0.1 uM after 90 mins by microfluidic peptide phosphorylation assay
In experiment [3] the target is Fibroblast growth factor receptor 2 (Homo sapiens) (UniProt P21802). As to conditions: 0.1 uM.
Description: Inhibition of human FGFR2 catalytic domain expressed in baculovirus assessed as substrate phosphorylation using fluorescence-labelled peptides as substrate at 0.1 uM after 90 mins by microfluidic peptide phosphorylation assay
In experiment [4] the target is Calcium/calmodulin-dependent protein kinase type II subunit gamma (Homo sapiens) (UniProt Q13555). As to conditions: 0.1 uM.
Description: Inhibition of human CAMK2 gamma catalytic domain expressed in baculovirus assessed as substrate phosphorylation using fluorescence-labelled peptides as substrate at 0.1 uM after 90 mins by microfluidic peptide phosphorylation assay
In experiment [5] the target is Ribosomal protein S6 kinase alpha-2 (Homo sapiens) (UniProt Q15349). The experiment in a line: Inhibition of human full length RSK3 expressed in baculovirus assessed as substrate phosphorylation using fluorescence-labelled peptides as substrate at 95 uM after 90 mins by microfluidic peptide phosphorylation assay.
In experiment [6] the target is T2, Serine/threonine-protein kinase D3 (Homo sapiens) (UniProt O94806).
T2 sequence (whole entry): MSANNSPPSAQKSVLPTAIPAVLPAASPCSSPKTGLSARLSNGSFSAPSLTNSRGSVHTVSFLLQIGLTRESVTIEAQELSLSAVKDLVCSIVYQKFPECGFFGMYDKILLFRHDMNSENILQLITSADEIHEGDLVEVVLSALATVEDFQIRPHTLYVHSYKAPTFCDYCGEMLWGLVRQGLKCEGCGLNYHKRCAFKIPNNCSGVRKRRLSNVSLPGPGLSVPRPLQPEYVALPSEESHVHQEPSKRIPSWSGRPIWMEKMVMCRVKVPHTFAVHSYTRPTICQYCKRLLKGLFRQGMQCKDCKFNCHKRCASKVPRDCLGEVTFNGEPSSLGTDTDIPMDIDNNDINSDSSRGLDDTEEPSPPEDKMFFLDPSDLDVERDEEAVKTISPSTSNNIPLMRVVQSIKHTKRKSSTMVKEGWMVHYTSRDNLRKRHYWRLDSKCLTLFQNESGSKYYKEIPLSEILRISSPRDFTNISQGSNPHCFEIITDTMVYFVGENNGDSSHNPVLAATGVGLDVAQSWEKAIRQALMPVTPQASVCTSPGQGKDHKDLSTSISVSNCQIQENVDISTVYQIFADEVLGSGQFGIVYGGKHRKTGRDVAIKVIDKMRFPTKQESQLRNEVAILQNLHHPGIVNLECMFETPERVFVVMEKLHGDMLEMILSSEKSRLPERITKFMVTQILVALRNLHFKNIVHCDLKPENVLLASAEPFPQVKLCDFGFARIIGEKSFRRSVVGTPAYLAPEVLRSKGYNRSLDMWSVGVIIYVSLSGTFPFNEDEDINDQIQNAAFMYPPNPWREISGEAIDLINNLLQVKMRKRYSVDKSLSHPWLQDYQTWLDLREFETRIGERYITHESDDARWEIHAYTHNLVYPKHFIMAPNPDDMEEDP
Description: Inhibition of human full length PKD3 expressed in baculovirus assessed as substrate phosphorylation using fluorescence-labelled peptides as substrate at 9 uM after 90 mins by microfluidic peptide phosphorylation assay.

For experiment [7], the target named is MAP kinase-activated protein kinase 2 (Homo sapiens) (UniProt P49137). The experiment in a line: Inhibition of human full length MAPKAPK2 expressed in baculovirus assessed as substrate phosphorylation using fluorescence-labelled peptides as substrate at 9 uM after 90 mins by microfluidic peptide phosphorylation assay.
Experiment [8] addresses Protein kinase C beta type (Homo sapiens) (UniProt P05771). Description: Inhibition of human truncated PKC beta1 expressed in baculovirus assessed as substrate phosphorylation using fluorescence-labelled peptides as substrate at […] after 90 mins by microfluidic peptide phosphorylation assay.
The target in experiment [9] is Serine/threonine-protein kinase PAK 2 (Homo sapiens) (UniProt Q13177). The experiment in a line: Inhibition of human truncated PAK2 expressed in Escherichia coli cell assessed as substrate phosphorylation using fluorescence-labelled peptides as substrate at 0.06 uM after 90 mins by microfluidic peptide phosphorylation assay.
Experiment [10] concerns the target Proto-oncogene tyrosine-protein kinase Src (Homo sapiens) (UniProt P12931). The experiment in a line: Inhibition of human full length SRC expressed in baculovirus assessed as substrate phosphorylation using fluorescence-labelled peptides as substrate at 70 uM after 90 mins by microfluidic peptide phosphorylation assay.
Experiment [11] has as its target T3, cGMP-dependent protein kinase 1 (Homo sapiens) (UniProt Q13976).
T3 sequence (whole entry): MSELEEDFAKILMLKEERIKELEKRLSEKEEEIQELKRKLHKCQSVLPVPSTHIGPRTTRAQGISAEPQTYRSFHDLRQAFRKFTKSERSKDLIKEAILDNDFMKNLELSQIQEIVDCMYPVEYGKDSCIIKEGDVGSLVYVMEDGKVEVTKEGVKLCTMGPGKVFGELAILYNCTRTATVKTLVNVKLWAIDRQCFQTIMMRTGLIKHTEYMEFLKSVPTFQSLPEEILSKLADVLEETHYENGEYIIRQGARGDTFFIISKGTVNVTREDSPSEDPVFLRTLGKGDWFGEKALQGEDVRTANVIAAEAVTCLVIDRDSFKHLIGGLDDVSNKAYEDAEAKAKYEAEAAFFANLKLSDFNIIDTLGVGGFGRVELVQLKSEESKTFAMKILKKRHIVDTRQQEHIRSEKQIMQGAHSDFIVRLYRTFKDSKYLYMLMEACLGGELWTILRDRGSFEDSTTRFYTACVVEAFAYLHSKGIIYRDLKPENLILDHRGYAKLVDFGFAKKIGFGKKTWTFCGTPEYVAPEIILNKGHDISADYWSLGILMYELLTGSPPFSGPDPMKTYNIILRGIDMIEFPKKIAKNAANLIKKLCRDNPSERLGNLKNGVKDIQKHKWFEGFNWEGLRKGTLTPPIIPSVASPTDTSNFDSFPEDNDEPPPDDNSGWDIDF
The experiment in a line: Inhibition of human full length PKG-1a expressed in baculovirus assessed as substrate phosphorylation using fluorescence-labelled peptides as substrate at 70 uM after 90 mins by microfluidic peptide phosphorylation assay.

The target of experiment [12] is Tyrosine-protein kinase ABL2 (Homo sapiens) (UniProt P42684). Description: Inhibition of human truncated Arg expressed in baculovirus assessed as substrate phosphorylation using fluorescence-labelled peptides as substrate at 70 uM after 90 mins by microfluidic peptide phosphorylation assay.
Tyrosine-protein kinase ABL2 (Homo sapiens), sequence (P42684 whole entry, the tested form may be a part): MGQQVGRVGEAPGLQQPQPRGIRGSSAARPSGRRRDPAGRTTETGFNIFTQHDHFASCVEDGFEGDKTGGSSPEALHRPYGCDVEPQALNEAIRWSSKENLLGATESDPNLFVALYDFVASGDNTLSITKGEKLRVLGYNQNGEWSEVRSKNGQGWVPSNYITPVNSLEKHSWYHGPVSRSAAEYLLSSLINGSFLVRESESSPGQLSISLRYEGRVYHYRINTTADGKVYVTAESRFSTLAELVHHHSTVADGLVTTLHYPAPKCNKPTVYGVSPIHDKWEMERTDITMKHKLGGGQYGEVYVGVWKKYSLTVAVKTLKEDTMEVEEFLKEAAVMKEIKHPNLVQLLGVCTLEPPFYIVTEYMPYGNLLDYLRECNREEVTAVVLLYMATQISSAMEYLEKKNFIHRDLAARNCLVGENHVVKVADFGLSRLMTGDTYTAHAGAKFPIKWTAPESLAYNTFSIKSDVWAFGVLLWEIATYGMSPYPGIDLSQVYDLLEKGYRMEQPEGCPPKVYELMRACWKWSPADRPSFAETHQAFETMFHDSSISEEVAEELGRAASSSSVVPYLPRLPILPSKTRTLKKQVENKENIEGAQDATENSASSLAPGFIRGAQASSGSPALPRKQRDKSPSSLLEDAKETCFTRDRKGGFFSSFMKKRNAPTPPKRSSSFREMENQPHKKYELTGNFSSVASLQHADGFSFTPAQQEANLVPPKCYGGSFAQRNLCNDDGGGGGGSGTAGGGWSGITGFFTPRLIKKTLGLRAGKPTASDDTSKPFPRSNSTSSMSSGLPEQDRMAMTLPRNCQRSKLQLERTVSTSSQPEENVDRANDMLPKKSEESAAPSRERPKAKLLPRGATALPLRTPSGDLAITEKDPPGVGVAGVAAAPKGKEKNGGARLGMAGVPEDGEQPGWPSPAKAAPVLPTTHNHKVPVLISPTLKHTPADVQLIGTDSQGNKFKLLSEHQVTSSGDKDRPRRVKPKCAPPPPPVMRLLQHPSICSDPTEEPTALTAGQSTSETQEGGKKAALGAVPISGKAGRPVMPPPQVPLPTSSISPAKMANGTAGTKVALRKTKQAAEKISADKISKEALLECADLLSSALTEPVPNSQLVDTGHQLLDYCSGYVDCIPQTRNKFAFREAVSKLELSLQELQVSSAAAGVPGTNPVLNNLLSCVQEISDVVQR

Fibroblast growth factor receptor 2 (Homo sapiens), sequence (P21802 22-821 limits assumed): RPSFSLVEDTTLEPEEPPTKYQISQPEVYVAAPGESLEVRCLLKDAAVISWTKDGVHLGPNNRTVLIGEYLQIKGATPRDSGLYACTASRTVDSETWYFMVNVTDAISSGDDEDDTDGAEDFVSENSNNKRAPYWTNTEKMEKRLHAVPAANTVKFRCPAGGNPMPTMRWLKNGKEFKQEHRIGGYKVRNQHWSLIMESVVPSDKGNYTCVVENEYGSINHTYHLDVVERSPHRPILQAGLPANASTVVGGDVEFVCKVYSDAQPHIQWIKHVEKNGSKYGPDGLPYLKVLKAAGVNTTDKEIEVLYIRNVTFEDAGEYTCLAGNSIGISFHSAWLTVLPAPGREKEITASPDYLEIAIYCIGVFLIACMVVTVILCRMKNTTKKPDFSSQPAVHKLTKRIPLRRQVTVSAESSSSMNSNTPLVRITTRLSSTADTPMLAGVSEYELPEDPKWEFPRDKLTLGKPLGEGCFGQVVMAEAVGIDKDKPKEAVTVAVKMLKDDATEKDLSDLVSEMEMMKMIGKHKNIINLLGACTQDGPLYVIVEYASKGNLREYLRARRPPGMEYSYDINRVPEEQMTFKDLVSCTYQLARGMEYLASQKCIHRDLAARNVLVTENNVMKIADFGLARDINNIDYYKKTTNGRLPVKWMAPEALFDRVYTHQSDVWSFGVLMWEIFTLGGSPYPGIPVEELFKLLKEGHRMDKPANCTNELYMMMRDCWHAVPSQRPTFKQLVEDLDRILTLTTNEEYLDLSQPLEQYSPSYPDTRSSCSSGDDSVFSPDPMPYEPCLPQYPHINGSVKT
Protein kinase C beta type (Homo sapiens), sequence (P05771 2-671 limits assumed): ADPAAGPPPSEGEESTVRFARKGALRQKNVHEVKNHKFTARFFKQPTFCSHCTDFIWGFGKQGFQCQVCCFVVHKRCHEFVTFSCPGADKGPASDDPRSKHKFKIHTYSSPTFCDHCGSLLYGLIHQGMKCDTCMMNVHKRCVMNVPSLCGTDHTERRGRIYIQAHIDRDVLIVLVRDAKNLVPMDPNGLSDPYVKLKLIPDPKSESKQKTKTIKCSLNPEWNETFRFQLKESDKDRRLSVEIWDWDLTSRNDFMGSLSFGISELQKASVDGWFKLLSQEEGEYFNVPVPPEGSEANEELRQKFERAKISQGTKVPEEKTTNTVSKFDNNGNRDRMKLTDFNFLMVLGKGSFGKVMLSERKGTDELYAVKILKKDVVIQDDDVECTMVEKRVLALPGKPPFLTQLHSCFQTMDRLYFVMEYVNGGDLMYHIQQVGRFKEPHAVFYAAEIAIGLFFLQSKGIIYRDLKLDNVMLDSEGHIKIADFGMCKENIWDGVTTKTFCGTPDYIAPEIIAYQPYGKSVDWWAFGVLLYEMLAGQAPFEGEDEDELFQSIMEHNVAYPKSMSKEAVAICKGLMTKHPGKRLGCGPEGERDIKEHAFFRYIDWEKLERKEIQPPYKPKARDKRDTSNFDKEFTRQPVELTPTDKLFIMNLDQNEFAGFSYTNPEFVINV
Ribosomal protein S6 kinase alpha-2 (Homo sapiens), sequence (Q15349 whole entry): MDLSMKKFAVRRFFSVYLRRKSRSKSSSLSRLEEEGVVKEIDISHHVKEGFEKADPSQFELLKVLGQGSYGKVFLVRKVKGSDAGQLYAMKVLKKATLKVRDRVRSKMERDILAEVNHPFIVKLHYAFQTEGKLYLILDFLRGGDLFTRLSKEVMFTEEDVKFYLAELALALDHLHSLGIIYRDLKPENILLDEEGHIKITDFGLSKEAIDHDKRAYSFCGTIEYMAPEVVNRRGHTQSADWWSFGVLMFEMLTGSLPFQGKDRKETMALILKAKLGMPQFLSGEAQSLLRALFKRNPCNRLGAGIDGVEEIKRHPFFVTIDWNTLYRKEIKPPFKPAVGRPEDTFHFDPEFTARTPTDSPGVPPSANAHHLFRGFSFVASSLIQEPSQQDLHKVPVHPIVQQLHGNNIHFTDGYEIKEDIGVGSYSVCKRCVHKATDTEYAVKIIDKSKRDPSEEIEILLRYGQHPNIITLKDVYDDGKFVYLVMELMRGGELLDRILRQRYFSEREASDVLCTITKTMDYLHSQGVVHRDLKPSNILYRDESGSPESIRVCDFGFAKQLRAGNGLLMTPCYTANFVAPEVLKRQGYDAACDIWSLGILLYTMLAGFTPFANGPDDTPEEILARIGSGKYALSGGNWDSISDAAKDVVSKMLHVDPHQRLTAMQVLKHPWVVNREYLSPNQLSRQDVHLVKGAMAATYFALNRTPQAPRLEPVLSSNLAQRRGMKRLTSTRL
Glycogen synthase kinase-3 beta (Homo sapiens), sequence (P49841 whole entry, looked up): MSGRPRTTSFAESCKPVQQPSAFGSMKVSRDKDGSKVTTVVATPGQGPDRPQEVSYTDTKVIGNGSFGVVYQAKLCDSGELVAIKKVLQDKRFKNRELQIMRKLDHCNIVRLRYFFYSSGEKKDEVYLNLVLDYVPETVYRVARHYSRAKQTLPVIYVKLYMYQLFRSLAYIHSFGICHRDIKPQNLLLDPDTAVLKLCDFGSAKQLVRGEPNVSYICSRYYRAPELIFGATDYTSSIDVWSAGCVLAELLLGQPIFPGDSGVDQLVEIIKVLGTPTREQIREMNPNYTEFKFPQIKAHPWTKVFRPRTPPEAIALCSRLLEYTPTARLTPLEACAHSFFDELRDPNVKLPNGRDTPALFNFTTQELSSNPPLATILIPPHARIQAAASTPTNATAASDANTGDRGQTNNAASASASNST
Proto-oncogene tyrosine-protein kinase Src (Homo sapiens), sequence (P12931 2-536 limits assumed): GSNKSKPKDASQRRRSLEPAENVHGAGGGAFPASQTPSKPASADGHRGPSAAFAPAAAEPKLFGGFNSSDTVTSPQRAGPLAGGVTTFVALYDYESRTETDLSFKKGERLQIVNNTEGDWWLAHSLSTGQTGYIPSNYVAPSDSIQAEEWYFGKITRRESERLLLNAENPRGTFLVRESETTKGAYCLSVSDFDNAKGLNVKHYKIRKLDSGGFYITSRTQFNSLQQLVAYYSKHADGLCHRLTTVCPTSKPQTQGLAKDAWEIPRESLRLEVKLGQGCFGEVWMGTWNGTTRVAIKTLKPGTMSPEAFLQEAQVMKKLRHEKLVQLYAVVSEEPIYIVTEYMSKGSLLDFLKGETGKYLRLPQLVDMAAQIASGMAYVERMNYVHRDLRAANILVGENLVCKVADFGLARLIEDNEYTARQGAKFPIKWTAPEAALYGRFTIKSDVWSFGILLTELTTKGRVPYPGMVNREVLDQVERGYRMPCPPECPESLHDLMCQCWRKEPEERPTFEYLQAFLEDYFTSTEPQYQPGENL
MAP kinase-activated protein kinase 2 (Homo sapiens), sequence (P49137 whole entry, looked up, the tested form may be a part): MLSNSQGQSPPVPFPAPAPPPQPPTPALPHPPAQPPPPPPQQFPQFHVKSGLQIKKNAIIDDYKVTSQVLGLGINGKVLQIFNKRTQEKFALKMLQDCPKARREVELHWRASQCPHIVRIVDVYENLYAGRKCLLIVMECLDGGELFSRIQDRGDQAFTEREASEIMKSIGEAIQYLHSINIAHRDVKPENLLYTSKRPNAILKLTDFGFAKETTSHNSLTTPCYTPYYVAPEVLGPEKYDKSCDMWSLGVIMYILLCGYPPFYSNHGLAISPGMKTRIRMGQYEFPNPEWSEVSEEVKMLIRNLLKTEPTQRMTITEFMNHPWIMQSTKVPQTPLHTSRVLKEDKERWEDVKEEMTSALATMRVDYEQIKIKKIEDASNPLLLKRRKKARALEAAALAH

With `Clc1ccc(C2(c3ccc(-c4ncnc5[nH]cnc45)cc3)CCNCC2)cc1`, the inhibition in experiment [1] stood at 7%.

On to `C[C@H](CN(C)C)Oc1nc(Nc2cc3cccc(Cl)c3cn2)cnc1C#N`, for which the inhibition in experiment [2], in [3] and in [4] was 0% each time.

For `NCCc1ccc(-c2ncnc3[nH]cnc23)cc1`, the inhibition in experiment [5] was determined as 89%.

Regarding `NCC1CN(c2ncnc3[nH]c4cnccc4c23)CCO1` (configuration not stated), the inhibition amounted to 80% in experiment [6] and 19.5% in [7].

Turning to `COC(=O)c1cnc(Nc2cnc(C#N)cn2)cc1NCC1CCNCC1`, the inhibition in [8] was found to be 2%.

As to `NC1(Cc2ccc(Cl)cc2)CCN(c2ncnc3[nH]ccc23)CC1`, in experiment [9], the inhibition was 1.5%.

On to `CNCc1ccc(-c2ncnc3[nH]cnc23)cc1`, for which the inhibition in [10] worked out at 37.5%; in experiment [11], 97.5%; in experiment [12] it was 33%.
